Results from patent EP1158297A1, “METHOD FOR SCREENING COMPOUND HAVING AFFINITY FOR VITAMIN D RECEPTOR” (CHUGAI SEIYAKU KABUSHIKI KAISHA, priority 1999, dated 2000).
Read-outs that look alike come from different tables or passages of the source.

Columns and labels:
VDRE = assay: Reporter gene (CAT) assay using reporter gene vector having VDRE; format: cell-based, African green monkey; conditions: for VDRE-mediated transcription promoting activity: relative value with the EC50 value of 1α,25-dihydroxyvitamin D3 as 100%, COS-1 cells with rat vitamin D receptor expression vector, CAT ELISA, lower = more potent
Excerpt: The reporter gene vector having VDRE used was a product produced by integrating VDRE ([…]) of a mouse osteopontin gene into a cassette vector (pGCAT; Kato S. et al., Cell (1992)68, 731-742) containing a promoter region (-109/+10) of rabbit β-globin and CAT (chloramphenicol acetyltransferase). As an expression vector for β-galactosidase used for correction of transfection efficiency, pCH110 (Pharmacia) was used. As a carrier vector, BSM (BluescribeM13+: […]) was used.
The rat vitamin D receptor expression vector used was a product obtained by integrating cDNA of a rat vitamin D receptor into pSG5 ([…]).
COS-1 cells were cultured in a DMEM medium containing 5% FBS and 10 nM insulin, and cultures were subcultured at intervals of 3 or 4 days at a density of 1,500 to 3,000 cells/cm^2. The conditions for culture were 37°C and 5% CO2. For cultivation of COS-1 cells during reporter gene assay, a phenol red-free DMEM medium containing 5% DCC-FBS (charcoal-treated FBS) and 10 nM insulin was used. COS-1 cells were seeded into a 6-well plate at a density of 5 to 8 x 10^4 cells/1.75 mL/well. […]
After overnight culture, each well was washed with 1 mL/well of a phenol red-free DMEM medium. […] Then, the amount of CAT expressed was measured using a CAT ELISA kit (Boehringer Mannheim).
The cell lysate (10 µL), 175 µL of Buffer Z (60 mM Na2HPO4, 40 mM NaH2PO4, 10 mM KCl, 1 mM MgSO4) and 35 µL of 4 mg/mL ONPG (o-nitrophenyl-β-D-galactopyranoside; SIGMA) were mixed in a 96-well plate (Nunc-Immuno plate Maxi Sorp Surface) and the system was incubated for 1 hour at 37°C. Then, 100 µL of 1M Na2CO3 was added to terminate the reaction and A415 was measured with a plate reader. Based on the measured values, the number of units of the cell lysate was calculated from the following equation and the cell lysate in an amount corresponding to 15 units was used in CAT ELISA measurement. […]
Based on the measured values of CAT ELISA, the EC50 value of each derivative was calculated to evaluate the VDRE-mediated action.

osteoporosis model rats [1] = format: in vivo; conditions: OVX rats, third lumbar vertebra
Method: 7- to 9-week-old W-I female rats (Imamichi Institute for Animal Reproduction) were subject to ovariectomy. […] After the last dose, 24-hour urine was sampled and the blood was taken under ether anesthesia. After the animal was euthanized, the lumbar vertebrae were removed.
The lumbar bone mineral density was measured at the third lumbar vertebra site using a dual X-ray bone mineral content measuring device (DCS-600, ALOKA). The blood and urinary calcium concentrations and the urinary creatinine concentration were measured with an automatic analyzer (Model 7170, Hitachi).
Statistical processing was carried out using Statistic Analysis System (SAS) software. A comparison between a sham operation (sham) group and an ovariectomy (OVX) group was made by an unpaired t-test. A comparison between the OVX group and the drug treatment group, or a comparison between the sham group and the drug treatment group was made by Dunnett's multiple test. A P-value less then 5% was considered as a significant difference.

osteoporosis model rats [2] = assay: Bone mass decrease in osteoporosis model rats, oral treatment (Example 3); format: in vivo
Method: 8-week-old W-I female rats (Imamichi Institute for Animal Reproduction) were subjected to overiectomy. From the following day onward, 1α-hydroxyvitamin D3 was orally administered 5 times weekly in a daily dose of 0.1 µg/kg, or Compound No. 22 was orally administered daily for 5 weeks in a daily dose of 3 µg/kg given as a single dose or two divided doses. After the last dose, 24-hour urine was sampled and a blood sample was taken under ether anesthesia. After the animal was euthanized, the lumbar vertebrae were removed. The lumbar bone mineral density was measured at the third lumbar vertebra site using a dual X-ray bone mineral content measuring device (DCS-600EX, ALOKA). The blood and urinary calcium concentrations and the urinary creatinine concentration were measured with an automatic analyzer (Model 7170, Hitachi).
Statistical processing was carried out using basic software for statistical analysis (SAS). A comparison between the sham group and the OVX group, a comparison between the OVX group and the 1α-hydroxyvitamin D3 treatment group, or a comparison between the sham group and the 1α-hydroxyvitamin D3 treatment group was made by an unpaired t-test, with the p value less than 5% representing a significant difference. A comparison between the OVX group and the Compound No. 22 group, or a comparison between the sham group and the Compound No. 22 group was made by Dunnett's multiple test, with the p value less than 5% showing a significant difference.

NF-κB family = assay: Reporter gene (luciferase) assay using reporter gene vector having NF-κB binding sequence; format: cell-based, human; conditions: IC37.5 value expressed as percentage of the value of 1α,25-dihydroxyvitamin D3 (100%); Jurkat cells with rat vitamin D receptor expression vector, PMA and ionomycin stimulation; lower = more potent
Excerpt: (§1) A basic vector was constructed by inserting a promoter region (-72/+47) of a human IL-2 gene into a cassette vector of luciferase (pXP2; described in S.K. Nordeen, Biotechniques, Vol. 6, pp. 454-456, (1988)). For a reporter gene vector having an AP-1 binding sequence, five AP-1 binding sequences ([…]) of a human collagenase (MMP-1) gene were inserted tandem into the basic vector. For a reporter gene vector having an NF-κB binding sequence, four NF-κB binding sequences ([…]) of a human immunoglobulin light chain κ gene were inserted tandem into the basic vector. The resulting products were used as the respective reporter gene vectors.
(§2) The rat vitamin D receptor expression vector used was a product obtained by inserting cDNA of a rat vitamin D receptor (described in James K. Burmester et al., Proc. Natl. Acad. Sci. USA, Vol. 85, pp. 9499-9502, […]) into the pSG5 ([…]).
(§3) Jurkat cells were cultured in RPMI-1640 (GIBCO BRL) containing 10% FBS and antibiotics. The culture was started at a density of 5 x 10^4 cells/mL and the cells were subcultured at intervals of 3 or 4 days to a density of 5 x 10^4 cells/mL. The conditions for culture were 37°C and 5% CO2. […] Both of the solutions were mixed and then allowed to stand for 30 minute at room temperature.

vitamin D receptor = biological target: T1, vitamin D receptor (Homo sapiens, UniProt P11473); assay: Affinity for vitamin D receptor; format: binding; conditions: relative to that of 1α,25-dihydroxyvitamin D3
T1 sequence (P11473 1-427): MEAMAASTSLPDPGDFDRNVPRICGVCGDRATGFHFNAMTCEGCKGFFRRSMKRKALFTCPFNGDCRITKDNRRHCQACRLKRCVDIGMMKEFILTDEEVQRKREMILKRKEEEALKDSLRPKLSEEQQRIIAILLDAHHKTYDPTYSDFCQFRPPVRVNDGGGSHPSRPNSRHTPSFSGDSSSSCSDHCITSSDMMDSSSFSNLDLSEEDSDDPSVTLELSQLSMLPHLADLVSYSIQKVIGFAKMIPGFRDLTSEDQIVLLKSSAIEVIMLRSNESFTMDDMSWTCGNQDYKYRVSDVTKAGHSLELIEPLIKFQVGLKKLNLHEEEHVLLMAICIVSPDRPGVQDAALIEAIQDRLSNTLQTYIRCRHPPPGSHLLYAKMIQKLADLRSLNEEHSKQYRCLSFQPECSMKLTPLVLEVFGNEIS

AP-1 complex = assay: Reporter gene (luciferase) assay using reporter gene vector having AP-1 binding sequence; format: cell-based, human; conditions: IC37.5 value expressed as percentage of the value of 1α,25-dihydroxyvitamin D3 (100%); Jurkat cells with rat vitamin D receptor expression vector, PMA and ionomycin stimulation; lower = more potent
Excerpt: as §1, §2, §3

osteoporosis model rats [3] = assay: Bone strength decrease and bone resorption in osteoporosis model rats, oral treatment (Example 4); format: in vivo
Method: 13-month-old W-I female rats (Imamichi Institute for Animal Reproduction) were subject to overiectomy. From the following day onward, Compound No. 22 was administered p.o. daily for 3 months in a daily dose of 1.5 to 6 µg/kg given as two divided doses. After the last dose, 24-hour urine was sampled and a blood sample was taken under ether anesthesia. After the animal was euthanized, the lumbar vertebrae were removed.
The lumbar bone mineral density was measured at the second to fourth lumbar vertebra site using a dual X-ray bone mineral content measuring device (DCS-600EX, ALOKA). The bone strength of the fifth lumbar vertebra was measured with Autograph AG-2000E (Shimadzu Corp.). The blood calcium concentration and the urinary creatinine concentration were measured with an automatic analyzer (Model 7170, Hitachi). The urinary deoxypyridinoline was measured with Osteolinks DPD.
Statistical Analysis was carried out using Statistic Analysis System (SAS) software. A comparison between the sham group and the OVX group was made by an unpaired t-test. A comparison between the OVX group and the Compound No. 22 treatment group, or a comparison between the sham group and the Compound No. 22 treatment group was made by Dunnett's multiple test, with the p value less than 5% showing a significant difference.

[4] = OVX rats, 0.1 µg/kg orally 5 times weekly, in comparison with the sham group and the OVX group

SMILES | VDRE-mediated transcription promoting activity (VDRE) | decrease in bone mineral density (osteoporosis model rats [1]; 0.04 µg/kg subcutaneously 5 times weekly for 6 weeks) | decrease in bone mineral density by OVX (osteoporosis model rats [2]; 0.1 µg/kg orally 5 times weekly, third lumbar vertebra) | blood Ca level (osteoporosis model rats [2]; [4]) | urinary Ca excretion (osteoporosis model rats [2]; [4]) | Inhibitory activity against NF-κB family (NF-κB family) | effect of suppressing the decrease in bone mineral density (osteoporosis model rats [2]; OVX rats, orally 3 µg/kg once daily or 1.5 µg/kg twice daily for 5 weeks, third lumbar vertebra) | affinity for a vitamin D receptor (vitamin D receptor) | Inhibitory activity against AP-1 complex (AP-1 complex) | VDRE-mediated transcription promoting activity relative to that of 1α,25-dihydroxyvitamin D3 (VDRE; fraction of the activity of 1α,25-dihydroxyvitamin D3) | decrease in bone mineral density (osteoporosis model rats [1]; 0.1 µg/kg subcutaneously 5 times weekly for 6 weeks) | decrease in bone mineral density (osteoporosis model rats [1]; doses of 0.01 to 0.1 µg/kg subcutaneously 5 times weekly for 6 weeks) | serum Ca concentration (osteoporosis model rats [3]; OVX rats, orally 0.75, 1.5 or 3 µg/kg twice daily for 3 months) | urinary Dpyr excretion increased by OVX (osteoporosis model rats [3]; oral treatment twice daily for 3 months, urinary deoxypyridinoline, bone resorption marker) | decrease in the bone strength by OVX (osteoporosis model rats [3]; orally 0.75, 1.5 or 3 µg/kg twice daily for 3 months, fifth lumbar vertebra) | decrease in the bone mineral density by OVX (osteoporosis model rats [3]; orally 0.75, 1.5 or 3 µg/kg twice daily for 3 months, second to fourth lumbar vertebra)
C=C1/C(=C\C=C2/CCC[C@]3(C)[C@@H]([C@H](C)CCCC(C)(C)O)CC[C@@H]23)C[C@@H](O)C[C@@H]1O [1α,25-dihydroxyvitamin D3, reference compound] | 100.00% | significantly suppressed | – | – | – | – | – | – | – | – | – | – | – | – | – | –
C=C1/C(=C\C=C2/CCC[C@]3(C)[C@@H]([C@H](C)CCCC(C)C)CC[C@@H]23)C[C@@H](O)C[C@@H]1O [1α-hydroxyvitamin D3] | – | – | significantly suppressed | significantly increased | significantly increased | – | – | – | – | – | – | – | – | – | – | –
C=C1/C(=C\C=C2/CCC[C@]3(C)C([C@@H](C)SCC(O)(CC)CC)=CC[C@@H]23)C[C@@H](O)C[C@@H]1O [Compound 22, 1α,3β-dihydroxy-20(R)-(2-ethyl-2-hydroxybutylthio)-9,10-secopregna-5,7,10(19),16-tetraene] | 1032.20% | – | – | – | – | 5.19% | comparable to or higher than that of 1α-hydroxyvitamin D3 | 0.8 times | 3.74% | about 1/10 | significant suppressing effect | dose-dependent effect of suppressing the decrease in bone mineral density | without increases | significantly decreased | significantly suppressed | significantly suppressed
